2 molecules from patent publication US6342503B1, “1N-alkyl-n-arylpyrimidinamines and derivatives thereof” (DuPont Pharmaceuticals Company, priority 1993, dated 2002) can be followed below.

The target in one data set is T1, CRF receptor (Rattus norvegicus, UniProt P35353).
T1 construct: 100 μl of membrane suspension as prepared above to give a total reaction volume of 300 μl; from tissue; host or cells: rat cerebral cortex membrane homogenate
T1 sequence (P35353 24-415): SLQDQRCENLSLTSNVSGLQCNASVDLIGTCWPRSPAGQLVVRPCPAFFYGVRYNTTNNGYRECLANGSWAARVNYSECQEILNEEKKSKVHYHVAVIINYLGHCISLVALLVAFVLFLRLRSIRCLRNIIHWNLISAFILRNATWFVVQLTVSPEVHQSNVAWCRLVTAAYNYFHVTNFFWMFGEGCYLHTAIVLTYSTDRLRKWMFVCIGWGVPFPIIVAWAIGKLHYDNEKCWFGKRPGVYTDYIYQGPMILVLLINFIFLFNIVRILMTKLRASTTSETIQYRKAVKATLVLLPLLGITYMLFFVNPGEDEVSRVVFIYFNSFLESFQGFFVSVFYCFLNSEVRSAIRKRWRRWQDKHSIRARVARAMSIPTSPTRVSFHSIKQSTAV
Description: In vitro CRF receptor binding assay (competition with [125I] ovine CRF, rat cortex membranes). The note with it: read-out: Inhibition Ki.

A value given as a limit tells only on which side of the number the result lay.

The melting point is the temperature of the solid-liquid transition. By Ki is commonly meant a dissociation constant, usually derived from enzyme kinetics or from competition with a known ligand.

The molecule `CCN(c1nc(C)cc(C)n1)c1ccc(OC)cc1SC` [compound 185, N-(4-methoxy-2-methylthiophenyl)-N-ethyl-4,6-dimethyl-2-pyrimidinamine] came in with a melting point of 128 to 130 °C. Moreover, the Ki at CRF receptor is < 500 nM.
The like results for `CCN(c1nc(C)cc(C)n1)c1ccc(C(C)C)cc1S(C)(=O)=O` [compound 174, N-(2-methylsulfonyl-4-(1-methylethyl)phenyl)-N-ethyl-4,6-dimethyl-2-pyrimidinamine] were, in that order, 174 to 176 °C and < 500 nM.
